# Biological target: T1, human PAD4 (Homo sapiens, UniProt Q9UM07)
# T1 construct: human PAD4 (NM_012387), A2-P663, was PCR amplified; His-SUMO (N, cleaved yes); made in house; host or cells: E. coli BL21(DE3)
# Experiment: In vitro PAD4 BAEE biochemical assay
# Settings: BAEE substrate 3 mM, 5 nM PAD4, 2 mM calcium chloride; geometric mean of multiple experiments
# In short: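 Fluorescence read-out (ex 405/em 535 nm) of isoindole formed from ammonia, o-phthalaldehyde and DTT after EDTA stop. Reaction: 5 nM PAD4, 2 mM CaCl2, 3 mM BAEE, 2 h, 25 °C, after 30 min enzyme–compound preincubation. Normalised to BB-Cl-Amidine (50 µM) and DMSO controls.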
# T1 sequence (Q9UM07 2-663): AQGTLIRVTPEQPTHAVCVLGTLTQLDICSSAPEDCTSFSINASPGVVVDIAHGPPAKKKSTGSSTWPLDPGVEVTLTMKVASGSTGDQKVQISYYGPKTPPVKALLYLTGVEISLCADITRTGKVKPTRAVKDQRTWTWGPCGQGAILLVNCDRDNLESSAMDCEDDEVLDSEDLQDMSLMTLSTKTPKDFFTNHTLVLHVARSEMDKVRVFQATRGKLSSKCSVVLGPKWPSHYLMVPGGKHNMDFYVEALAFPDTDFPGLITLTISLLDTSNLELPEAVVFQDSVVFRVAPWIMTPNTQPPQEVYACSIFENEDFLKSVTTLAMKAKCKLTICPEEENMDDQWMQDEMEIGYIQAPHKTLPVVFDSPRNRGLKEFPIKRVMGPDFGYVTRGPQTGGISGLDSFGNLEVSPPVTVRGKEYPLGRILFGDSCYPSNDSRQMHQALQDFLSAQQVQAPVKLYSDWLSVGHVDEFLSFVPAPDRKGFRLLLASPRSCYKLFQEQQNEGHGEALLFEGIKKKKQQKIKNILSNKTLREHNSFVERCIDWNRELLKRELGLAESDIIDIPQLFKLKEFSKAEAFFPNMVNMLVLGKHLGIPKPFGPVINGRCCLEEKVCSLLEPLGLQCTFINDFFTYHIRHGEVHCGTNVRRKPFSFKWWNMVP
row,Structure (SMILES),IC50 [nM]
1,"COc1cc(C(=O)N2[C@H]3CC[C@@H]2[C@H](N)C3)cc2nc(-c3cc4ccc5cc4n3CCCOC[C@H]3C[C@H]3C(=O)N[C@@H]5C)n(C)c12 [Example 342, (2~{R},5~{R},7~{S})-14-[5-[(1~{R},2~{R},4~{S})-2-amino-7-azabicyclo[2.2.1]heptane-7-carbonyl]-7-methoxy-1-methyl-benzimidazol-2-yl]-2-methyl-9-oxa-3,13-diazatetracyclo[11.5.2.0^{5,7}.0^{16,20}] icosa-1(19),14,16(20),17-tetraen-4-one]",43
2,"COc1cc(C(=O)N2[C@H]3CC[C@@H]2[C@H](N)C3)cc2nc(-c3cc4ccc5cc4n3CCCCCCNC(=O)c3ccccc3-5)n(C)c12 [Example 97, 17-[5-[(1~{R},2~{R},4~{S})-2-amino-7-azabicyclo[2.2.1]heptane-7-carbonyl]-7-methoxy-1-methyl-benzimidazol-2-yl]-9,16-diazatetracyclo[14.5.2.0^{2,7}.0^{19,23}] tricosa-1(22),2,4,6,17,19(23),20-heptaen-8-one]",57
3,"COc1cc(C(=O)N2CC[C@@H](OC(F)F)[C@@H](N)C2)cc2nc(-c3cc4ccc5nc4n3CCCCCc3cc4ccccc4nc3C(=O)N[C@@H]5C)n(C)c12 [Example 732, (2~{R})-21-[5-[(3~{S},4~{R})-3-amino-4-(difluoromethoxy)piperidine-1-carbonyl]-7-methoxy-1-methyl-benzimidazol-2-yl]-2-methyl-3,6,20,26-tetrazapentacyclo[18.5.2.0^ {5,14}.0^{7,12}.0^{23,27}] heptacosa-1(26),5(14),6,8,10, 12,21,23(27),24-nonaen-4-one]",214
4,"COc1cc(C(=O)N2CC[C@@H](OC)[C@@H](N)C2)cc2nc(-c3cc4ccc5nc4n3CCCCCc3ccnc(C4CC4)c3C(=O)N[C@@H]5C)n(C)c12 [Example 663, (2~{R})-17-[5-[(3~{S),4~ {R})-3-amino-4-methoxy-piperidine-1-carbonyl]-7-methoxy-1-methyl-benzimidazol-2-yl]-6-cyclopropyl-2-methyl-3,7,16,22-tetrazatetracyclo[14.5.2.0^ {5,10}.0^{19,23}] tricosa-1(22),5,7,9,17,19(23), 20-heptaen-4-one]",71
5,"C[C@H]1NC(=O)[C@@H]2C[C@]2(F)CCCCCn2c(-c3nc4cc(C(=O)N5C[C@H](N)[C@@H]6CC[C@H]5C6)cc(F)c4n3C3CC3)cc3ccc1nc32 [Example 712, (2~{R},5~{S},7~{R})-14-[5-[(1~{S},4~{R},5~ {R})-4-amino-2-azabicyclo [3.2.1]octane-2-carbonyl]-1-cyclopropyl-7-fluoro-benzimidazol-2-yl]-7-fluoro-2-methyl-3,13,19-triazatetracyclo[11.5.2.0^ {5,7}.0^{16,20}] icosa-1(19),14,16(20), 17-tetraen-4-one]",24
6,"CO[C@@H]1CCN(C(=O)c2ccc3c(c2)nc(-c2cc4ccc5nc4n2CCCCCc2nc(Cl)ccc2C(=O)N[C@@H]5C)n3C2CC2)C[C@@H]1N [Example 693, (2~{R})-17-[5-[(3~{S},4~ {R})-3-amino-4-methoxy-piperidine-1-carbonyl]-1-cyclopropyl-benzimidazol-2-yl]-8-chloro-2-methyl-3,9,16,22-tetrazatetracyclo [14.5.2.0^{5,10}.0^ {19,23}]tricosa-1(22), 5(10),6,8,17,19(23), 20-heptaen-4-one]",18
7,"C[C@@H]1[C@H](N)CCCN1C(=O)c1cc(F)c2c(c1)nc(-c1cc3ccc4nc3n1CCCCCc1nc3ccccc3cc1C(=O)N[C@@H]4C)n2C1CC1 [Example 830, (2~{R})-21-[5-[(2~{R}, 3~{R})-3-amino-2-methyl-piperidine-1-carbonyl]-1-cyclopropyl-7-fluoro-benzimidazol-2-yl]-2-methyl-3,13,20,26-tetrazapentacyclo[18.5.2.0^ {5,14}.0^{7,12}.0^ {23,27}]heptacosa-1(26),5(14),6,8,10,12,21, 23(27),24-nonaen-4-one]",19
8,"COc1cc(C(=O)N2C[C@H](N)[C@@H]3CC[C@H]2C3)cc2nc(-c3cc4ccc5nc4n3CCCCCc3nc(C(F)F)ccc3C(=O)N[C@@H]5C)c(C)n12 [Example 777, (2~{R})-17-[7-[(1~{S},4~{R},5~ {R})-4-amino-2-azabicyclo [3.2.1]octane-2-carbonyl]-5-methoxy-3-methyl-imidazo[1,2-a]pyridin-2-yl]-8-(difluoromethyl)-2-methyl-3,9,16,22-tetrazatetracyclo [14.5.2.0^{5,10).0^{19,23}] tricosa-1(22),5(10),6,8,17, 19(23),20-heptaen-4-one]",17
9,"COc1cc(C(=O)N2CC[C@@H](OC)[C@@H](N)C2)cc2nc(-c3cc4ccc5nc4n3CC(F)(F)CCCCC3(CC(F)(F)C3)C(=O)N[C@@H]5C)n(C)c12 [Example 821, (11~{R})-17-[5-[(3~{S),4~ {R})-3-amino-4-methoxy-piperidine-1-carbonyl]-7-methoxy-1-methyl-benzimidazol-2-yl]-1′,1′,3,3-tetrafluoro-11-methyl-spiro[1,10,19-triazatricyclo[10.5.2.0^ {15,18}]nonadeca-12 (19),13,15(18),16-tetraene-8,3′-cyclobutane]-9-one]",102
10,"COc1cc(C(=O)N2CC[C@@H](OC(F)F)[C@@H](N)C2)cc2nc(-c3cc4ccc5nc4n3CC(F)(F)CCCCC3(CC(F)(F)C3)C(=O)N[C@@H]5C)n(C)c12 [Example 822, (11~{R})-17-[5-[(3~{S},4~ {R})-3-amino-4-(difluoromethoxy)piperidine-1-carbonyl]-7-methoxy-1-methyl-benzimidazol-2-yl]-1′,1′,3,3-tetrafluoro-11-methyl-spiro [1,10,19-triazatricyclo [10.5.2.0^{15,18}]nonadeca-12(19),13,15(18),16-tetraene-8,3′-cyclobutane]-9-one]",205
11,"COc1cc(C(=O)N2[C@H]3CC[C@@H]2[C@H](N)C3)cc2nc(-c3cc4ccc5cc4n3CCCCCCCC(=O)N[C@@H]5C)n(C)c12 [Example 215, (11˜{R})-17-[5-[(1˜{R},2˜{R},4˜{S})-2-amino-7-azabicyclo[2.2.1]heptane-7-carbonyl]-7-methoxy-1-methyl-benzimidazol-2-yl]-11-methyl-1,10-diazatricyclo[10.5.2.0^{15,18}]nonadeca-12(19),13,15(18),16-tetraen-9-one]",20

# Next, values leading:
row,IC50 [nM],Structure (SMILES)
1,56,"COc1cc(C(=O)N2CCC[C@@H](N)C2)cc2nc(-c3cc4ccc5nc4n3C[C@H]3C[C@H]3COC[C@@H](C)C(=O)N[C@@H]5C)n(C)c12 (single isomer, unassigned) [Example 312, (3˜{S},5˜{R},9˜{R},12˜{R})-18-[5-[(3˜{R})-3-aminopiperidine-1-carbonyl]-7-methoxy-1-methyl-benzimidazol-2-yl]-9,12-dimethyl-7-oxa-1,11,20-triazatetracyclo[11.5.2.0^{3,5}.0^{16,19}]icosa-13(20),14,16(19),17-tetraen-10-one]"
2,57,"COc1cc(C(=O)N2CC[C@@H](OC)[C@@H](N)C2)cc2nc(-c3cc4ccc5nc4n3CCCCC[C@@H]3C[C@@]3(F)C(=O)N[C@@H]5C)n(C)c12 [Example 695, (2~{R},5~{S},7~{R})-14-[5-[(3~{S},4~{R})-3-amino-4-methoxy-piperidine-1-carbonyl]-7-methoxy-1-methyl-benzimidazol-2-yl]-5-fluoro-2-methyl-3,13,19-triazatetracyclo[11.5.2.0^ {5,7}.0^{16,20}]icosa-1(19), 14,16(20),17-tetraen-4-one]"
3,28,"COc1cc(C(=O)N2[C@H]3CC[C@@H]2[C@H](N)C3)cc2nc(-c3cc4ccc5nc4n3CCCCC[C@@H]3C[C@H]3C(=O)N[C@@H]5C)n(C)c12 (single isomer, unassigned) [Example 223, (2˜{R},5˜{R},7˜{R})-14-[5-[(1˜{R},2˜{R},4˜{S})-2-amino-7-azabicyclo[2.2.1]heptane-7-carbonyl]-7-methoxy-1-methyl-benzimidazol-2-yl]-2-methyl-3,13,19-triazatetracyclo[11.5.2.0^{5,7}.0^{16,20}]icosa-1(19),14,16(20),17-tetraen-4-one]"
4,135,"COc1cc(C(=O)N2CCC[C@@H](N)C2)cc2nc(-c3cc4ccc5nc4n3C[C@H]3C[C@H]3COCC(C)(C)C(=O)N[C@@H]5C)n(C)c12 [Example 310, (3~{S},5~{R},12~{R})-18-[5-[(3~{R})-3-aminopiperidine-1-carbonyl]-7-methoxy-1-methyl-benzimidazol-2-yl]-9,9,12-trimethyl-7-oxa-1,11,20-triazatetracyclo[11.5.2.0^{3,5}.0^{16,19}] icosa-13(20),14,16(19),17-tetraen-10-one]"
5,145,"COc1cc(C(=O)N2CC[C@@H](OC)[C@@H](N)C2)cc2nc(-c3cc4ccc5nc4n3CC(F)(F)CCCOC3(CC3)C(=O)N[C@@H]5C)n(C)c12 [Example 589, (11~{R})-17-[5-[(3~{S},4~ {R})-3-amino-4-methoxy-piperidine-1-carbonyl]-7-methoxy-1-methyl-benzimidazol-2-yl]-3,3-difluoro-11-methyl-spiro[7-oxa-1,10,19-triazatricyclo[10.5.2.0^ {15,18}]nonadeca-12(19), 13,15(18),16-tetraene-8,1′-cyclopropane]-9-one]"
6,153,"COc1cc(C(=O)N2CCC[C@@H](N)C2)cc2nc(-c3cc4ccc5nc4n3C[C@@H]3C[C@H]3COC[C@H](C)C(=O)N[C@@H]5C)n(C)c12 [Example 266, (5~{R},9~{S},12~{R})-18-[5-[(3~{R})-3-aminopiperidine-1-carbonyl]-7-methoxy-1-methyl-benzimidazol-2-yl]-9,12-dimethyl-7-oxa-1,11,20-triazatetracyclo[11.5.2.0^{3,5}.0^{16,19}] icosa-13(20),14,16(19),17-tetraen-10-one]"

# Source: patent publication US11976083B2, “Inhibitors of peptidylarginine deiminases” (Gilead Sciences, Inc., priority 2020, dated 2024)
